Assay results from PubChem BioAssay AID608 (Sanford-Burnham Center for Chemical Genomics, 2007).
The source made the active and inactive calls. No rule for the calls is given here.

Each compound was assayed against Peptidyl-prolyl cis-trans isomerase FKBP1A (Homo sapiens) (UniProt P62942) (assay: small-molecule binding to FKBP12 – biophysical, NMR detection (AID 608)). Settings: purified FKBP12.
Sequence of Peptidyl-prolyl cis-trans isomerase FKBP1A (Homo sapiens) (P62942 whole entry, looked up): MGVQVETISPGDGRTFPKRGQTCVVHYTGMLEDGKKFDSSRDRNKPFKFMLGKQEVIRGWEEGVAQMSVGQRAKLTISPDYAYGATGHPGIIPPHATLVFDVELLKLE

SMILES | Kd
CC(=O)c1c(C)n(O)c2ccc3nonc3c12 | > 4 mM (inactive)
CCN1CCn2c1nc(N1CCOCC1)nc2=O | > 4 mM (inactive)
CN1CCC(N(C)C2CCN(C)CC2)CC1 | > 4 mM (inactive)
O=C(O)c1ccc(Oc2ccccc2)nc1 | > 4 mM (inactive)
O=c1[nH]nc(Cc2ccccn2)c2ccccc12 | > 4 mM (inactive)
Oc1ccc2c(c1)OCC1(O)Cc3cc(O)c(O)cc3C21 (centres undefined) | > 4 mM (inactive)
CCc1cc(=O)[nH]c(SCC(=O)NCCOC)n1 | > 4 mM (inactive)
CC(=O)c1cccc(NC2=NCC(C)(C)S2)c1 | > 4 mM (inactive)
COc1ccc2cc1Oc1ccc(cc1)C[C@H]1c3c(cc4c(c3Oc3cc5c(cc3OC)CCN(C)[C@@H]5C2)OCO4)CCN1C | > 4 mM (inactive)
Nc1nc(CSc2ncn(-c3ccccc3)n2)cs1 | > 4 mM (inactive)
[O-][n+]1onc2c1CCc1c-2nc(-c2ccccc2)n1O | > 4 mM (inactive)
O=C(c1sc2cc(Cl)cc(Cl)c2c1Cl)N1CCOCC1 | inactive
CCN1C(=O)c2cccc3c(S(N)(=O)=O)ccc1c23 | > 4 mM (inactive)
Cc1ncoc1C(=O)Nc1ncc([N+](=O)[O-])s1 | > 4 mM (inactive)
NC(=O)NC1NC(=O)NC1=O (centres undefined) | > 4 mM (inactive)
CCCn1c(C)cc(=O)[nH]c1=O | > 4 mM (inactive)
Cc1ccc(CNc2ccc(O)cc2)cc1 | > 4 mM (inactive)
C/C=C(\C)c1nnc(NC(=O)C(C)C)s1 | > 4 mM (inactive)
Nc1nnc(SCc2cccnc2)s1 | > 4 mM (inactive)
CN1CC(=O)N=C1N | > 4 mM (inactive)
CC1C[C@H]2CC(=O)[C@H]3CCCN4CCC[C@H]2[C@]34C1 (some centres undefined) | > 4 mM (inactive)
COc1ccc(Cl)cc1-c1nc(-c2ccncc2)no1 | > 4 mM (inactive)
Cc1cc(NC(=O)CCCn2cnc([N+](=O)[O-])n2)no1 | > 4 mM (inactive)
CN1CCN(c2cc(=O)n(C)c(=O)[nH]2)CC1 | > 4 mM (inactive)

SMILES | Kd
C=CCc1ccc(OC(=O)c2ccccc2)c(OC)c1 | > 4 mM (inactive)
NC(=O)C1(S(=O)(=O)c2ccccc2)CC1 | > 4 mM (inactive)
O=C1CC(NCc2ccco2)C(=O)NN1 (centres undefined) | > 4 mM (inactive)
Cc1ccc(C(=O)Nc2ccncc2)o1 | > 4 mM (inactive)
C=CCSCC=C | > 4 mM (inactive)
O=C1NC(=S)N/C1=C\c1cccnc1 | > 4 mM (inactive)
CN1CCC(N2CCCC(C(N)=O)C2)CC1 (centres undefined) | > 4 mM (inactive)
CC(=O)O[C@H]1CC[C@]2(C)C3CC[C@@]4(C)C(CC5O[C@@]6(CCC(C)CO6)[C@@H](C)C54)C3CC[C@@H]2C1 (some centres undefined) | > 4 mM (inactive)
Cn1c(CO)nc2ccccc21 | > 4 mM (inactive)
CC(NC(=O)c1ccco1)c1ccc2c(c1)OCCO2 (centres undefined) | > 4 mM (inactive)
Cn1cccc1C(=O)NS(=O)(=O)c1ccccc1Cl | > 4 mM (inactive)
COc1ccc(-c2oc3c(CC=C(C)C)c(O[C@@H]4O[C@H](CO)[C@@H](O)[C@H](O)[C@H]4O)cc(O)c3c(=O)c2O[C@@H]2O[C@@H](C)[C@H](O)[C@@H](O)[C@H]2O)cc1 | > 4 mM (inactive)
CCOC(=O)c1c(C)n([O-])c2ccccc2[n+]1=O | > 4 mM (inactive)
COc1ccc(NC2=NCC(C)S2)cc1 (centres undefined) | > 4 mM (inactive)
c1ccn(Cc2ccncc2)c1 | > 4 mM (inactive)
COc1ccc(C)cc1-n1c(-c2ccncc2)n[nH]c1=S | > 4 mM (inactive)
O=[n+]1c2c(n([O-])c3ccccc31)CCCC2 | > 4 mM (inactive)
N#Cc1nc(-c2cccs2)oc1N1CCOCC1 | > 4 mM (inactive)
COc1cc(O)cc(/C=C/c2ccccc2)c1 | > 4 mM (inactive)
O=C(Cn1c(-c2cscn2)nc2ccccc21)Nc1ccc(Cl)cc1 | > 4 mM (inactive)
CCOc1cc(C)c(Cl)cc1S(=O)(=O)N(C)C | > 4 mM (inactive)
CCn1c(-c2ccccc2)n[nH]c1=S | > 4 mM (inactive)
CC1(C)CC(=O)c2cnn(-c3nc4ccccc4[nH]3)c2C1 | 0.491 mM
O=C1CNCc2[nH]c3ccccc3c2N1c1ccccc1 | > 4 mM (inactive)

SMILES | Kd
Cc1ccccc1-n1c(-c2ccncc2)n[nH]c1=S | > 4 mM (inactive)
Fc1ccc(Br)cc1/C=N/n1cnnc1 | > 4 mM (inactive)
O=C(Nc1ncccn1)c1cccc(F)c1 | > 4 mM (inactive)
O=C(O)c1ccnc2ccccc12 | > 4 mM (inactive)
CC(C)(C)NC(=O)CN1C(=O)c2ccccc2S1(=O)=O | > 4 mM (inactive)
O=C(Nc1cccc(C(F)(F)F)c1)c1cccnc1 | > 4 mM (inactive)
CCOC(=O)c1cnn2ccccc12 | > 4 mM (inactive)
C#CCCCCCCCCCCCc1ccco1 | > 4 mM (inactive)
C/C=C/C=N/NC(=O)c1ccc(=O)n(C)c1 | > 4 mM (inactive)
Cc1nc2ccccc2c2c1C(=O)N(C)C2=O | > 4 mM (inactive)
CC(=O)c1cccc(NS(=O)(=O)N2CCOCC2)c1 | inactive
CNC(=O)c1ccccc1N | > 4 mM (inactive)
COc1cc2nc[nH]c(=O)c2cc1OC | > 4 mM (inactive)
O=C1CC(c2ccccc2)n2ncnc2N1 (centres undefined) | > 4 mM (inactive)
O=C(c1sc2cc(Cl)ccc2c1Cl)N1CCOCC1 | inactive
Cc1nn(-c2ccccc2)nc1CN | > 4 mM (inactive)
CSCCNC(C)=O | > 4 mM (inactive)
NCc1ccccc1N1CCCCC1 | > 4 mM (inactive)
Cc1c(C(=O)Nc2ccncc2)oc2c1C(=O)CC(C)(C)C2 | > 4 mM (inactive)
NC1=NC(=O)/C(=C\c2ccco2)S1 | > 4 mM (inactive)
CC(C)c1ccc2c(c1)CCC1C(C)(C(N)=O)CCCC21C (centres undefined) | > 4 mM (inactive)
CCCCN1C(=O)C2CC/C(=N/O)CC2C1=O (centres undefined) | > 4 mM (inactive)
O=C(Cn1cnc2ccccc2c1=O)N1CCOCC1 | > 4 mM (inactive)
O=C(N1CCOCC1)N1CCN(c2ccccn2)CC1 | > 4 mM (inactive)

SMILES | Kd
Cc1nn(-c2ccccc2)c(Cl)c1C(N)=O | > 4 mM (inactive)
CC(C)=CCCC1(C)C=Cc2c(O)c3c(c(CC=C(C)C)c2O1)OC12C(=CC4CC1C(C)(C)OC2(C/C=C(/C)C(=O)O)C4=O)C3=O (centres undefined) | > 4 mM (inactive)
C=CCNC(=O)c1ccc(Cl)cc1Cl | > 4 mM (inactive)
Cn1ncc2c(=O)n(CC(=O)c3ccccc3)cnc21 | > 4 mM (inactive)
OC[C@H]1O[C@@H](Oc2ccc(O)cc2)[C@H](O)[C@@H](O)[C@@H]1O | > 4 mM (inactive)
Cn1nnc2cc(C(=O)NCc3ccco3)ccc21 | > 4 mM (inactive)
NC(=O)CSc1nc2ccccc2c(=O)[nH]1 | > 4 mM (inactive)
Nc1nc(SCc2ccccc2)ns1 | > 4 mM (inactive)
O=C(O)C1CCCN1Cc1c[nH]c2ccccc12 (centres undefined) | > 4 mM (inactive)
Cc1cc(C)nc(/N=C(\N)N2CCc3ccccc32)n1 | > 4 mM (inactive)
Cc1onc(-c2c(Cl)cccc2Cl)c1C(N)=O | > 4 mM (inactive)
CN1C2CC3C[C@H]1C(O3)C2O (some centres undefined) | > 4 mM (inactive)
Cc1cc(C)n2c(SCc3c(C)noc3C)nnc2n1 | > 4 mM (inactive)
COC(=O)CC1C(C)(C)C(OC(C)=O)[C@@H]2[C@@H](OC(C)=O)[C@]34O[C@@]2(O)[C@]1(C)C3CC[C@]1(C)C4=CC(=O)O[C@H]1c1ccoc1 (some centres undefined) | > 4 mM (inactive)
O=C1CC(=O)N(Cc2ccco2)C(=S)N1 | > 4 mM (inactive)
Cc1ccccc1OCC(=O)O | > 4 mM (inactive)
CC(=O)Nc1ccc2c(C)cc(=O)[nH]c2c1 | > 4 mM (inactive)
COC(=O)c1cccs1 | > 4 mM (inactive)
NC(=O)CN1CCC(c2nc3ccccc3[nH]2)CC1 | > 4 mM (inactive)
Oc1cc(O)c2c(c1)O[C@H](c1cc(O)c(O)c(O)c1)[C@H](O)C2 | > 4 mM (inactive)
COc1cc(OC)c2c(c1Cl)OC1(C2=O)C(O)=CC(=O)CC1C (centres undefined) | > 4 mM (inactive)
O=C(O)c1cc2ccccc2cn1 | > 4 mM (inactive)
O=C1C2C3C=CC(O3)C2C(=O)N1c1ccccc1 (centres undefined) | > 4 mM (inactive)
CC(=O)CNc1cc(CNC(C)=O)c(C)cc1C | > 4 mM (inactive)

SMILES | Kd
CSc1ccn(CCC(=O)O)c(=O)n1 | > 4 mM (inactive)
CCOC(=O)c1cc2ccccc2oc1=O | > 4 mM (inactive)
OCc1cc2ccccc2o1 | > 4 mM (inactive)
CC1(C)C2CC[C@]3(C)C(C(=O)C=C4[C@H]5C[C@@](C)(C(=O)O)CC[C@]5(C)CC[C@]43C)[C@@]2(C)CC[C@@H]1O (some centres undefined) | > 4 mM (inactive)
Cc1ccc(CN2C3=NC(=O)CN3c3ccccc32)cc1 | > 4 mM (inactive)
NC(=O)Cn1nc(-c2ccco2)ccc1=O | > 4 mM (inactive)
COc1ccc(/C=C/c2cc(O)cc(O)c2)cc1 | > 4 mM (inactive)
O=C(O)CCC(=O)Nc1nnc(C(F)(F)F)s1 | > 4 mM (inactive)
Cc1nn(-c2ccccc2)nc1C(N)=O | > 4 mM (inactive)
C=CCSc1[nH]c(=O)cc(C)c1C(N)=O | > 4 mM (inactive)
Cn1nc(C(=O)NCc2cccnc2)c2ccccc2c1=O | > 4 mM (inactive)
C[C@H]1[C@H]2CCC3C4CC=C5C[C@@H](N(C)C)CC[C@]5(C)C4CC[C@@]32CN1C (some centres undefined) | > 4 mM (inactive)
O=C(c1ccncc1)N1CCN(C(=O)c2ccco2)CC1 | > 4 mM (inactive)
CCn1cnc2cc(NCc3ccncc3)ccc21 | > 4 mM (inactive)
COC(=O)c1ccc(N2CCCC2)nc1 | > 4 mM (inactive)
Nc1ccc(OCc2ccccc2)cc1 | > 4 mM (inactive)
CCSc1n[nH]c(=O)[nH]c1=O | > 4 mM (inactive)
C=C[C@](C)(O)CCC=C(C)C | > 4 mM (inactive)
Cc1nn(C)c(C)c1NC(=S)NC1CCCC1 | > 4 mM (inactive)
Cc1ccc(NS(=O)(=O)N2CCOCC2)cc1Cl | inactive
CCOC(=O)C1C(=O)C2CCN1CC2 (centres undefined) | > 4 mM (inactive)
c1ccc(-c2nsc(N3CCCNCC3)n2)cc1 | > 4 mM (inactive)
O=C(O)CCNc1n[nH]c(=O)[nH]c1=O | > 4 mM (inactive)
